Test results from publication PMC9865645, “The Impact of N^ε-Acryloyllysine Piperazides on the Conformational Dynamics of Transglutaminase 2” (International Journal of Molecular Sciences, 2023).

Target: T1, hTGase 2 (Homo sapiens, UniProt P21980)
T1 construct: purchased Zedira (Darmstadt, Germany) T022, lot 0716a
T1 sequence (P21980 1-687): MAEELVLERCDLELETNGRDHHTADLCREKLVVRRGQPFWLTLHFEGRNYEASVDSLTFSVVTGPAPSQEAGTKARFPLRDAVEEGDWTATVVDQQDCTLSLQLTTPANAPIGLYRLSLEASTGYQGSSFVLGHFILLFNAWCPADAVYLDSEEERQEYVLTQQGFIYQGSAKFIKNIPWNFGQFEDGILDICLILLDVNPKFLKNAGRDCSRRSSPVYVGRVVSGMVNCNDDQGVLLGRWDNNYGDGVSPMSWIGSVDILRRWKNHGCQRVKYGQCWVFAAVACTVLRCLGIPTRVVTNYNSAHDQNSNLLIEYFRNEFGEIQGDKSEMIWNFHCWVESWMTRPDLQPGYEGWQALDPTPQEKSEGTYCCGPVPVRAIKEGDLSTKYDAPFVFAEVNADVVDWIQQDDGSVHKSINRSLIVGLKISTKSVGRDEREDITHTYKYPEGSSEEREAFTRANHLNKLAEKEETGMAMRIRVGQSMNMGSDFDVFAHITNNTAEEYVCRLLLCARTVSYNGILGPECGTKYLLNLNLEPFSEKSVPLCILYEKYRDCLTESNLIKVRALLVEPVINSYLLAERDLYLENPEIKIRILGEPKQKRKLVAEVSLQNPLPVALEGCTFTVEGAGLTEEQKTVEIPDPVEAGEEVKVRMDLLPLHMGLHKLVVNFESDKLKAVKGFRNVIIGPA
Assay: switchSENSE static mode (fluorescence proximity sensing): binding kinetics of GTPγS to hTGase 2-dsDNA lever
Details: for koff / kon: 20 nM GTPγS, best-fit ± standard error; for Kd: quotient koff/kon
Method: The switchSENSE® experiments were performed with a DRX^2 (Dynamic Biosensors, excitation 600–630 nm, emission 650–686 nm). All experiments were performed in TE40 (10 mM TRIS pH 7.4, 40 mM NaCl, 50 µM EDTA, 50 µM EGTA, 100 µM TCEP, 0.05% Tween 20) when not explicitly stated otherwise. For the dynamic mode measurements, the standard operation procedures as described in [56] were applied. For measurements of the kinetics of the interaction of both GTPγS and CaCl2 with hTGase 2, firstly, the ssDNA-hTGase 2 conjugate was hybridized for 360 s to the ssDNA capture strand on the gold microelectrodes of the chip. With 500 nM, the conjugate concentration was chosen relatively high to achieve full coverage of the electrodes. Secondly, 1000 µL of 20 nM GTPγS in TE40 were flushed over the electrodes, followed by about 4000 µL of TE40 (2000 µL/min), to obtain access to the association as well as the dissociation, respectively. Changes in the fluorescence intensity during the GTPγS interaction were recorded using fluorescence proximity sensing (static mode).
The formation of the protein–ligand complex of GTPγS and hTGase 2 can be represented by the reaction equation expressed by Equation (1). (1) P+L kon⇌koff PL
The concentration of the protein–ligand complex, [PL] , at a certain time of association ta is [PL]a . At the beginning of the association, there is no surface-bound complex present, i.e., [PL]=0 , and the ligand concentration is assumed to be constant at [L]=cGTPγS . This neglects diffusion limitation by assuming continuous replacement of the medium at the electrode surface in the microfluidic channel. Thus, the time-dependent equilibrium fraction reached at the association time ta can be expressed by Equation (2). For derivation, see Equations (S1) to (S5) in Supplementary Materials. (2) [PL]a/[PL]∞=1−e^−ka·ta
In Equation (2), [PL]∞ is the equilibrium concentration of the protein–ligand complex, and ka is the apparent rate constant in the association experiment, defined by Equation (3). (3) ka=cGTPγS kon+koff
During the dissociation, the concentration of the free ligand is assumed to be constantly zero. Consequently, Equation (6) should be valid (for derivation, see Equations (S7) to (S10) in Supplementary Materials). (6) [PL]d/[PL]d,0=e^−koff·td
Combining Equations (6) and (7), the time-dependent fluorescence intensity during the dissociation is given by Equation (8). (8) Fd=(Fd,s−Fd,e)(e^−koff·td)+Fd,e
Equations (5) and (8) were fitted to the measured fluorescence intensities of the association and dissociation experiments with 20 nM GTPγS, respectively. This was performed by a damped Gauss–Newton algorithm (see Equations (S12) and (S13) in Supplementary Materials) to determine the best-fit parameters, and consequently, kon and koff. The quotient koff/kon is the dissociation constant, Kd. Additionally, the standard errors of these parameters were estimated (Equations (S14) to (S21) in Supplementary Materials).

[1] = His-tag-directed labeling of hTGase 2
[2] = non-directed labeling of hTGase 2

koff [1]: 1.9 ± 0.5 10^−2 s^−1 | kon [1]: 16 ± 2 10^6 M^−1 s^−1 | Kd [1]: 1.2 ± 0.4 nM | koff [2]: 1.6 ± 0.6 10^−2 s^−1 | kon [2]: 17 ± 4 10^6 M^−1 s^−1 | Kd [2]: 1 ± 0.4 nM
Compound: Nc1nc2c(ncn2[C@@H]2O[C@H](COP(=O)(O)OP(=O)(O)OP(O)(O)=S)[C@@H](O)[C@H]2O)c(=O)[nH]1 [GTPγS]
